Species: Rattus norvegicus
Test: Open TG-GATES - Regimen: Single
Format: toxicity, organism-based, Sprague-Dawley
Design: regimen Single, gender Male, age 6 weeks
Details: in vivo, po, 0 mg/kg, route gavage, dose level Control; for APTT / Bas / Eos / Fbg / Hb / Ht / Lym / MCH / MCHC / MCV / Mono / Neu / PT / Plat / RBC / Ret / WBC: tissue Blood; for KIDNEY_L / KIDNEY_R / KIDNEY_TOTAL: tissue Kidney; for LIVER: tissue Liver; for A/G / ALP / ALT / AST / BUN / CRE / Ca / Cl / DBIL / GLC / IP / K / LDH / Na / PL / RALB / TBIL / TC / TG / TP / gamma-GTP: tissue Plasma

In the case of `CCOC(=O)CCC(=O)O[C@H]1[C@H](O[C@@H]2[C@@H](C)[C@H](O[C@H]3C[C@@](C)(OC)[C@@H](O)[C@H](C)O3)[C@@H](C)C(=O)O[C@H](CC)[C@@](C)(O)[C@H](O)[C@@H](C)C(=O)[C@H](C)C[C@@]2(C)O)O[C@H](C)C[C@@H]1N(C)C` [ERYTHROMYCIN ETHYLSUCCINATE], the TERMINAL_BW (3 h) is reported as 215 g, the APTT (3 h) is reported as 23.2 s and the Bas (3 h) is reported as 0%. The Eos (3 h) was 1%, the Fbg (3 h) was 292.2 mg/dL and the Hb (3 h) was 13.2 g/dL. For the same molecule, the Ht (3 h) was 40.2%, the Lym (3 h) was 81.2% and the MCH (3 h) was 20.8 pg. For the same molecule, the MCHC (3 h) was 32.9%, the MCV (3 h) was 63.2 fL and the Mono (3 h) was 2%. For the same molecule, the Neu (3 h) was 15%, the PT (3 h) was 16.3 s and the Plat (3 h) was 112.7 x10_4/uL. For the same molecule, the RBC (3 h) was 635.6 x10_4/ul, the Ret (3 h) was 7.9% and the WBC (3 h) was 75.2 x10_2/uL. It also gave a KIDNEY_L (3 h) of 0.9 g, a KIDNEY_R (3 h) of 0.9 g and a KIDNEY_TOTAL (3 h) of 1.8 g. It also gave an LIVER (3 h) of 9.7 g, an A/G (3 h) of 1.2 and an ALP (3 h) of 1728.4 IU/L. It also gave an ALT (3 h) of 40.6 IU/L, an AST (3 h) of 76.6 IU/L and a BUN (3 h) of 14.6 mg/dL. The CRE (3 h) was 0.2 mg/dL, the Ca (3 h) was 10.4 mg/dL and the Cl (3 h) was 103.2 meq/L. For the same molecule, the DBIL (3 h) was 0 mg/dL, the GLC (3 h) was 188.2 mg/dL and the IP (3 h) was 8.3 mg/dL. The K (3 h) was 3.9 meq/L, the LDH (3 h) was 159.2 IU/L and the Na (3 h) was 139.4 meq/L. For the same molecule, the PL (3 h) was 140 mg/dL, the RALB (3 h) was 2.9 g/dL and the TBIL (3 h) was 0.012 mg/dL. For the same molecule, the TC (3 h) was 84.8 mg/dL, the TG (3 h) was 55.4 mg/dL and the TP (3 h) was 5.4 g/dL. It also gave a gamma-GTP (3 h) of 1 IU/L, a TERMINAL_BW (6 h) of 212.6 g and an APTT (6 h) of 22.9 s. The Bas (6 h) was 0%, the Eos (6 h) was 0.6% and the Fbg (6 h) was 321.8 mg/dL. For the same molecule, the Hb (6 h) was 13.8 g/dL, the Ht (6 h) was 42.2% and the Lym (6 h) was 75.8%. It also gave an MCH (6 h) of 21.3 pg, an MCHC (6 h) of 32.8% and an MCV (6 h) of 65 fL. For the same molecule, the Mono (6 h) was 2.4%, the Neu (6 h) was 20.2% and the PT (6 h) was 15.8 s. For the same molecule, the Plat (6 h) was 121 x10_4/uL, the RBC (6 h) was 651 x10_4/ul and the Ret (6 h) was 7.6%. For the same molecule, the WBC (6 h) was 111.5 x10_2/uL, the KIDNEY_L (6 h) was 0.9 g and the KIDNEY_R (6 h) was 0.9 g. The KIDNEY_TOTAL (6 h) was 1.9 g, the LIVER (6 h) was 9.3 g and the A/G (6 h) was 1.2. It also gave an ALP (6 h) of 1491 IU/L, an ALT (6 h) of 37.4 IU/L and an AST (6 h) of 70.6 IU/L. The BUN (6 h) was 9.6 mg/dL, the CRE (6 h) was 0.2 mg/dL and the Ca (6 h) was 10.3 mg/dL. For the same molecule, the Cl (6 h) was 103.4 meq/L, the DBIL (6 h) was 0.002 mg/dL and the GLC (6 h) was 190.6 mg/dL. For the same molecule, the IP (6 h) was 8.9 mg/dL, the K (6 h) was 4.1 meq/L and the LDH (6 h) was 138 IU/L. For the same molecule, the Na (6 h) was 139.6 meq/L, the PL (6 h) was 139.8 mg/dL and the RALB (6 h) was 3 g/dL. For the same molecule, the TBIL (6 h) was 0.02 mg/dL, the TC (6 h) was 78.8 mg/dL and the TG (6 h) was 67.6 mg/dL. It also gave a TP (6 h) of 5.5 g/dL, a gamma-GTP (6 h) of 1.2 IU/L and a TERMINAL_BW (9 h) of 212 g. The APTT (9 h) was 22.4 s, the Bas (9 h) was 0% and the Eos (9 h) was 0.6%. For the same molecule, the Fbg (9 h) was 319.6 mg/dL, the Hb (9 h) was 13 g/dL and the Ht (9 h) was 39.6%. It also gave a Lym (9 h) of 81.2%, an MCH (9 h) of 20.4 pg and an MCHC (9 h) of 32.8%. For the same molecule, the MCV (9 h) was 62.2 fL, the Mono (9 h) was 1.8% and the Neu (9 h) was 15.4%. For the same molecule, the PT (9 h) was 15.9 s, the Plat (9 h) was 118.3 x10_4/uL and the RBC (9 h) was 636.4 x10_4/ul. The Ret (9 h) was 7.4%, the WBC (9 h) was 106.6 x10_2/uL and the KIDNEY_L (9 h) was 1 g. For the same molecule, the KIDNEY_R (9 h) was 1 g, the KIDNEY_TOTAL (9 h) was 1.9 g and the LIVER (9 h) was 9 g. It also gave an A/G (9 h) of 1.2, an ALP (9 h) of 1414 IU/L and an ALT (9 h) of 38.4 IU/L. The AST (9 h) was 69.8 IU/L, the BUN (9 h) was 10.8 mg/dL and the CRE (9 h) was 0.2 mg/dL. For the same molecule, the Ca (9 h) was 10.5 mg/dL, the Cl (9 h) was 103.6 meq/L and the DBIL (9 h) was 0 mg/dL. The GLC (9 h) was 190.8 mg/dL, the IP (9 h) was 9.1 mg/dL and the K (9 h) was 4.2 meq/L. It also gave an LDH (9 h) of 161.4 IU/L, a Na (9 h) of 139.2 meq/L and a PL (9 h) of 124.4 mg/dL. The RALB (9 h) was 2.9 g/dL, the TBIL (9 h) was 0.016 mg/dL and the TC (9 h) was 71.6 mg/dL. The TG (9 h) was 51.6 mg/dL, the TP (9 h) was 5.4 g/dL and the gamma-GTP (9 h) was 1 IU/L. It also gave a TERMINAL_BW (24 h) of 227 g, an APTT (24 h) of 20.9 s and a Bas (24 h) of 0%. For the same molecule, the Eos (24 h) was 1%, the Fbg (24 h) was 327.8 mg/dL and the Hb (24 h) was 13.5 g/dL. It also gave a Ht (24 h) of 40.3%, a Lym (24 h) of 83.8% and an MCH (24 h) of 21.4 pg. The MCHC (24 h) was 33.4%, the MCV (24 h) was 64.2 fL and the Mono (24 h) was 3.4%. For the same molecule, the Neu (24 h) was 11%, the PT (24 h) was 15.9 s and the Plat (24 h) was 111.9 x10_4/uL. It also gave an RBC (24 h) of 629.4 x10_4/ul, a Ret (24 h) of 7.8% and a WBC (24 h) of 111 x10_2/uL. For the same molecule, the KIDNEY_L (24 h) was 1 g, the KIDNEY_R (24 h) was 1 g and the KIDNEY_TOTAL (24 h) was 2 g. The LIVER (24 h) was 10.5 g, the A/G (24 h) was 1.2 and the ALP (24 h) was 1574.2 IU/L. It also gave an ALT (24 h) of 37.6 IU/L, an AST (24 h) of 66.4 IU/L and a BUN (24 h) of 17.8 mg/dL. It also gave a CRE (24 h) of 0.1 mg/dL, a Ca (24 h) of 10.5 mg/dL and a Cl (24 h) of 106.6 meq/L. It also gave a DBIL (24 h) of 0 mg/dL, a GLC (24 h) of 211.4 mg/dL and an IP (24 h) of 8.5 mg/dL. It also gave a K (24 h) of 4.3 meq/L, an LDH (24 h) of 191.4 IU/L and a Na (24 h) of 143 meq/L. For the same molecule, the PL (24 h) was 156.2 mg/dL, the RALB (24 h) was 3 g/dL and the TBIL (24 h) was 0.024 mg/dL. It also gave a TC (24 h) of 81.4 mg/dL, a TG (24 h) of 119.4 mg/dL and a TP (24 h) of 5.4 g/dL. It also gave a gamma-GTP (24 h) of 1.2 IU/L.
